Measurements taken from paper PMC12362796, “Bilirubin Targeting WNK1 to Alleviate NLRP3‐Mediated Neuroinflammation” (Advanced Science, 2025).

Columns and labels:
hWNK2 = target: T1, hWNK2 (Homo sapiens, UniProt Q9Y3S1); assay: MST, WNK kinase family member WNK2; format: binding
T1 construct: host or cells: HEK293T
Protocol: (§1) To validate the direct binding of bilirubin to WNK1, we performed a Microscale Thermophoresis (MST) analysis, which assesses the binding capacity of a compound by measuring the movement of proteins over a microscopic temperature gradient.^[ [26], [27] ^] We overexpressed full‐length WNK1 fused with Green Fluorescent Protein (GFP) in HEK‐293 cells, incubated the lysates with bilirubin at varying dilutions, and subjected them to precise MST measurements in capillaries. […] Furthermore, biliverdin, a structurally similar intermediate product generated before bilirubin formation, was used as a control.
(§2) All WNK1 clones were derived from the original untagged hWNK1 cDNA (NM_018979), which was modified and subcloned into the pcDNA3.1, referred to as “full‐length WNK1” throughout this study. Truncated constructs, including 1–190aa, 191–491aa, 1–491aa, and 491–2382aa fragments, were generated by PCR using the full‐length template and subsequently ligated into linearized pcDNA3.1 vectors. WNK2 was obtained from Addgene Plasmid #24569, and WNK3 was obtained from Addgene Plasmid #81723. Both were subjected to base modifications and cloned into pcDNA3.1. The WNK4 clone was derived from hWNK4 cDNA (NM_032387.5), modified, and subcloned into the pCMV3‐C‐GFPSpark vector.
(§3) In HEK293T cells, proteins tagged with green fluorescent protein (GFP) were expressed. […]

WNK1 (1–190) = target: T2, WNK1 (1–190) (Homo sapiens, UniProt Q9H4A3); assay: MST, EGFP-tagged WNK1 truncation 1–190; format: binding; details: WNK1 1–190 (non-kinase segment), 15 min, HEK293T lysates
T2 construct: different lengths of WNK1 truncations (1–491, 1–190, 191–491, 491–2382); expressed in transfected cells; host or cells: HEK293T
Excerpt: To further validate these findings, we constructed GFP‐tagged fusion proteins with different lengths of WNK1 truncations (1–491, 1–190, 191–491, 491–2382) based on the WNK1 domains (Figure 3E) and analyzed their binding capacity with bilirubin using MST analysis.^[ [29] ^]
as §2
In HEK293T cells, proteins tagged with green fluorescent protein (GFP) were expressed. The cells were lysed using the M‐PER Mammalian Protein Extraction Reagent (cat. no. 78505, Thermo Scientific) supplemented with protease inhibitors. Lysates were centrifuged at 12000 × g for 15 min at 4 °C, and the supernatant containing proteins was diluted 10‐fold with 1x PBST. […]

[1] = target: T3, point mutations of WNK1 (1–491) (Homo sapiens, UniProt Q9H4A3, F356A); assay: MST, EGFP-tagged point mutations of WNK1 (1–491); format: binding; details: WNK1-N F356A
T3 construct: EGFP‐tagged point mutations of WNK1 (1–491) (15 min) in lysates; expressed in transfected cells; host or cells: HEK293T
Excerpt: (§4) Molecular docking identified several crucial amino acid residues within binding site 1 of the kinase domain for the binding of WNK1 and bilirubin. These residues included Thr301 (T301), Met304 (M304), Lys351 (K351), and Phe356 (F356) (Figure 3C). To investigate this further, we constructed WNK1‐N mutants by replacing these residues with alanine (A). […] This finding highlights the critical role of these residues in bilirubin binding.
(§5) In HEK293T cells, proteins tagged with green fluorescent protein (GFP) were expressed. The cells were lysed using the M‐PER Mammalian Protein Extraction Reagent (cat. no. 78505, Thermo Scientific) supplemented with protease inhibitors. Lysates were centrifuged at 12000 × g for 15 min at 4 °C, and the supernatant containing proteins was diluted 10‐fold with 1x PBST. Protein fluorescence intensity and solubility were assessed using capillary scanning at 60% LED power.
(§6) For the binding assay, the proteins were mixed with ligands and incubated for 15 min at room temperature before being loaded into Monolith NT.115 Capillaries or NT.115 Premium Capillaries (NanoTemper Technologies, MO‐K022 and MO‐K025). MST measurements were performed on a Monolith NT.115 instrument (NanoTemper Technologies) at 25 °C. Instrument parameters included no more than 80% excitation power and a medium MST power. Data analysis was conducted using the MO. Affinity Analysis software (NanoTemper Technologies).

[2] = target: T4, point mutations of WNK1 (1–491) (Homo sapiens, UniProt Q9H4A3, M304A); assay: MST, EGFP-tagged point mutations of WNK1 (1–491); format: binding; details: WNK1-N M304A
T4 construct: EGFP‐tagged point mutations of WNK1 (1–491) (15 min) in lysates; expressed in transfected cells; host or cells: HEK293T
Excerpt: as §4, §5, §6

[3] = target: T5, point mutations of WNK1 (1–491) (Homo sapiens, UniProt Q9H4A3, K351A); assay: MST, EGFP-tagged point mutations of WNK1 (1–491); format: binding; details: WNK1-N K351A
T5 construct: EGFP‐tagged point mutations of WNK1 (1–491) (15 min) in lysates; expressed in transfected cells; host or cells: HEK293T
Excerpt: as §4, §5, §6

[4] = target: T6, point mutations of WNK1 (1–491) (Homo sapiens, UniProt Q9H4A3, T301A); assay: MST, EGFP-tagged point mutations of WNK1 (1–491); format: binding; details: WNK1-N T301A
T6 construct: EGFP‐tagged point mutations of WNK1 (1–491) (15 min) in lysates; expressed in transfected cells; host or cells: HEK293T
Excerpt: as §4, §5, §6

hWNK4 = target: T7, hWNK4 (Homo sapiens, UniProt Q96J92); assay: MST, WNK kinase family member WNK4; format: binding
T7 construct: expressed in transfected cells; host or cells: HEK293T
Protocol: as §1, §2, §3

primary astrocytes = assay: MQAE intracellular chloride measurement in primary astrocytes; format: cell-based; details: lacking KCC2 expression
Excerpt: Since bilirubin‐induced activation of WNK1 kinase activity increases [Cl⁻]i in neurons, we sought to elucidate the downstream effector proteins of WNK1 that are involved in this process. Neuronal [Cl⁻]i is primarily regulated by the Cl⁻‐K⁺ symporter KCC2, with additional modulation by factors such as the Na⁺‐K⁺‐Cl⁻ co‐transporter NKCC1, GABAA receptors, and glycine receptors (GlyR), all of which contribute to [Cl⁻]i homeostasis.^[ [31] ^] To investigate the mechanism underlying bilirubin‐induced changes in [Cl⁻]i, we selectively targeted these proteins using pharmacological inhibitors (VU0463271 for KCC2, bumetanide for NKCC1, bicuculline for GABAA receptors, and strychnine for GlyR) and activated KCC2 using CLP257.^[ [35], [36] ^] […] The bilirubin‐induced effect on [Cl⁻]i was not observed in primary astrocytes (Figure S15A,B, Supporting Information) or the HEK 293T cell line (Figure S15C, Supporting Information), both of which lacked KCC2 expression (Figure S16A,B, Supporting Information), further confirming that the effects of bilirubin and WNK1 on [Cl⁻]i elevation are dependent on KCC2.
Intracellular chloride concentration ([Cl⁻]i) was measured using the MQAE fluorescent dye (Life Technologies) following established protocols (Zhang, Lee et al. 2015). […]

[5] = tested on: cochlear nuclei and hippocampus neurons; assay: Neuronal excitability in cochlear nuclei and hippocampus neurons; format: cell-based
Excerpt: To ascertain whether bilirubin regulates chloride ions through WNK1, we generated Wnk1 gene knockout primary cultured neurons. We achieved neuron‐specific deletion of Wnk1 in hippocampal neurons by transducing primary neurons isolated from Wnk1^flox/flox embryonic mice with a lentivirus expressing hSyn‐Cre‐EGFP.^[ [33], [34] ^] […] Intracellular chloride concentration is crucial for modulating inhibitory synaptic transmission and, consequently, neuronal excitability.

FABP1 = tested on: FABP1; design: method as in PMID 37390966, PMID 34067839; details: cited from earlier work

T1 sequence (Q9Y3S1 whole entry): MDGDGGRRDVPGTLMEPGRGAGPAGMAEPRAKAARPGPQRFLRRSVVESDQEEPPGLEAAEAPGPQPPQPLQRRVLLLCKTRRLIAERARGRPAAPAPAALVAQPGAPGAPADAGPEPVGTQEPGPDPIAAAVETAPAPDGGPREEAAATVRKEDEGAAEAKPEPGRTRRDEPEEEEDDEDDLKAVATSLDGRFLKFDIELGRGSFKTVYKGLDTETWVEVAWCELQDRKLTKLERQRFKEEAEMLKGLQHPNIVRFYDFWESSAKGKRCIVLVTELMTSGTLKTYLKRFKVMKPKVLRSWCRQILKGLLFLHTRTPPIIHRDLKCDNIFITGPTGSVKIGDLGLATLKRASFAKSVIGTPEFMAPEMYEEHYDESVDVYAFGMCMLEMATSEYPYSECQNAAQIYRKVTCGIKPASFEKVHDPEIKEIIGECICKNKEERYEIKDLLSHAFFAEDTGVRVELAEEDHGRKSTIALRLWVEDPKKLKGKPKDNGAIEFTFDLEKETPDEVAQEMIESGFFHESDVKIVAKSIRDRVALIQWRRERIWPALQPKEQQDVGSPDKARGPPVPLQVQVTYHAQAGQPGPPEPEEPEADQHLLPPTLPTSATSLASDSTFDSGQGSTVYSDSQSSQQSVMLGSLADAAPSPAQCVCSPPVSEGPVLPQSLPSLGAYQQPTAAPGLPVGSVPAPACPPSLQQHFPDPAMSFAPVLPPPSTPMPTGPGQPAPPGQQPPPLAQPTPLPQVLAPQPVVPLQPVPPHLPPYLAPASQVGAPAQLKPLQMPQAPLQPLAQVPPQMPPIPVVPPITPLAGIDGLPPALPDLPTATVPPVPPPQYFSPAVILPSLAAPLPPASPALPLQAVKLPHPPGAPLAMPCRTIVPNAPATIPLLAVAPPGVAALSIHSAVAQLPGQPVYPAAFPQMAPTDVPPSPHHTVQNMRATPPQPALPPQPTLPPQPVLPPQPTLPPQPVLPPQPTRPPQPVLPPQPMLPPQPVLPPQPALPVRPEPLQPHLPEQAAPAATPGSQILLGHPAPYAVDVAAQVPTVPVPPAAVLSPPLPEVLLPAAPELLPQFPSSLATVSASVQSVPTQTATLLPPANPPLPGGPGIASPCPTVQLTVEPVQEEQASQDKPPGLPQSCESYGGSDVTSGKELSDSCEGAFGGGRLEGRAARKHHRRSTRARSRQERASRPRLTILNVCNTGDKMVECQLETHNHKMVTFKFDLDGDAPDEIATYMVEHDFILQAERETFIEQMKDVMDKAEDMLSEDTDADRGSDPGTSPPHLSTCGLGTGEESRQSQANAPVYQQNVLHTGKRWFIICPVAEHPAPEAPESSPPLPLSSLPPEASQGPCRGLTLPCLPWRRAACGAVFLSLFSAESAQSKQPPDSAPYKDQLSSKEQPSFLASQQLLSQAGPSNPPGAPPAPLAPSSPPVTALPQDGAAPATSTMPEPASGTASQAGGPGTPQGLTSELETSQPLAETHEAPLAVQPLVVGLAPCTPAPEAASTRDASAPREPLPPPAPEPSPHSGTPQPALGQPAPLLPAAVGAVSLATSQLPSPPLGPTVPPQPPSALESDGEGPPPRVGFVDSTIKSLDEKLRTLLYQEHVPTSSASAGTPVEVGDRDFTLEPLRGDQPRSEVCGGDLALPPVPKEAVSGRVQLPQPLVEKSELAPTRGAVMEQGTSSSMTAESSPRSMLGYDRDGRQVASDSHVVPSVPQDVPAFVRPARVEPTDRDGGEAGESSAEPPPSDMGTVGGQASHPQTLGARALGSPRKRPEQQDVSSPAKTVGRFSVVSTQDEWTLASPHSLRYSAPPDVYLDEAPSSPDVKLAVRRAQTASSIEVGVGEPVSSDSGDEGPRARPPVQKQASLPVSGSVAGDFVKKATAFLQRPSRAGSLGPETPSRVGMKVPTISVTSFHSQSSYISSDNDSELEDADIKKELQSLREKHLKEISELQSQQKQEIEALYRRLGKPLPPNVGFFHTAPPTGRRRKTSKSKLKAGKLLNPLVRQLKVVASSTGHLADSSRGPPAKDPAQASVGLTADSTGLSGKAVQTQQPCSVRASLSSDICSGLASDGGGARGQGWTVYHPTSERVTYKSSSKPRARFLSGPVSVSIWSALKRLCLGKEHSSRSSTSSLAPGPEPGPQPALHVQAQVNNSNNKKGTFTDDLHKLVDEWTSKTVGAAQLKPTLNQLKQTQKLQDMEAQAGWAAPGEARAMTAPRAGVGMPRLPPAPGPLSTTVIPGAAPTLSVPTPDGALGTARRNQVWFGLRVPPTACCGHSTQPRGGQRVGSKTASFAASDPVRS
T3 sequence (Q9H4A3 1-491 F356A): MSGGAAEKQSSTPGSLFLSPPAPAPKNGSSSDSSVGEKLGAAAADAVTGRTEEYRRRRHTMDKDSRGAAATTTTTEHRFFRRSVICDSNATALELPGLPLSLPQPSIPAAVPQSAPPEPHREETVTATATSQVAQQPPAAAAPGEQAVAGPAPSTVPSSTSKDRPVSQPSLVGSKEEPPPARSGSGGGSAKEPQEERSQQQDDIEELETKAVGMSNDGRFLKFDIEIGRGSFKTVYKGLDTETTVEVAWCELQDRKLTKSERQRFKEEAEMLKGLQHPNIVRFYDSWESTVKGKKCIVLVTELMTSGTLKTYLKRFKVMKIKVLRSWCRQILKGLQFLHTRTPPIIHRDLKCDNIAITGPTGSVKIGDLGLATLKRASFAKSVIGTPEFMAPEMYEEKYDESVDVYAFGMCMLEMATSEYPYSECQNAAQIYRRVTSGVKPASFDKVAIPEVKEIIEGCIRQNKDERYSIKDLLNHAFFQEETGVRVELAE
T7 sequence (Q96J92 whole entry): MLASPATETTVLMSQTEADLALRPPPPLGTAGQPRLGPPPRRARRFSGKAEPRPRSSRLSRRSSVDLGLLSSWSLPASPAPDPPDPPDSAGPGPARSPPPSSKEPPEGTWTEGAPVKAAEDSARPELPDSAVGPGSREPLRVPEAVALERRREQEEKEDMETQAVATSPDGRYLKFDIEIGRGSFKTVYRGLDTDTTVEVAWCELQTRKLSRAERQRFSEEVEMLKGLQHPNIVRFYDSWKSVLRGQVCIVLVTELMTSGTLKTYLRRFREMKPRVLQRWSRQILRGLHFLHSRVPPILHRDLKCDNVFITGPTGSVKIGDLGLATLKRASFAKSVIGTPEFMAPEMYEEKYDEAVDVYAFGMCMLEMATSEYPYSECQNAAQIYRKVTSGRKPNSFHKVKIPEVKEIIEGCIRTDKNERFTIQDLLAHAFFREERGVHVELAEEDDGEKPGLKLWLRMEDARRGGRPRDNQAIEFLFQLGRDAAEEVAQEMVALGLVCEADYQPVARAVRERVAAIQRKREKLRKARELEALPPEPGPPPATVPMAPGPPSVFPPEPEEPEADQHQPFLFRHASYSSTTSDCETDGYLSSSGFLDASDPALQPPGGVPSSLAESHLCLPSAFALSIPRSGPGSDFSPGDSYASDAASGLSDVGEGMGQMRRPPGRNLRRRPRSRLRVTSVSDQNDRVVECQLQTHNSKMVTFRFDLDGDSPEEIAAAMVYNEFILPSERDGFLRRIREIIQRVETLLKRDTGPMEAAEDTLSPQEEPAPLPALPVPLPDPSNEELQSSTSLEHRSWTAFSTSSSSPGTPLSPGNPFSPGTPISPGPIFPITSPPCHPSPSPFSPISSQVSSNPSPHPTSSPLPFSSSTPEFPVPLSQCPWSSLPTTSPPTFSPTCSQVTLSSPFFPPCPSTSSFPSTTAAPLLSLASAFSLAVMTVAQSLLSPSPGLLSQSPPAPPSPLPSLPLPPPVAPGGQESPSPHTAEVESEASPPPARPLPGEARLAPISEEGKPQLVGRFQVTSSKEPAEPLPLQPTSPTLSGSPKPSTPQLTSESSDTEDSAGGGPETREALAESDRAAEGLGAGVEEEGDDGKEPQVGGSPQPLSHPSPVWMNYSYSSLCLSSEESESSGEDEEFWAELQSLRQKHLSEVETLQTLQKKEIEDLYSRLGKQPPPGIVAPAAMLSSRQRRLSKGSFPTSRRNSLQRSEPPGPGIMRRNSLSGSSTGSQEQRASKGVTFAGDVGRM
T6 sequence (Q9H4A3 1-491 T301A): as the sequence (Q9H4A3 1-491 F356A) above, with T301A, A356F counted along it
T5 sequence (Q9H4A3 1-491 K351A): as the sequence (Q9H4A3 1-491 F356A) above, with K351A, A356F counted along it
T2 sequence (Q9H4A3 1-190): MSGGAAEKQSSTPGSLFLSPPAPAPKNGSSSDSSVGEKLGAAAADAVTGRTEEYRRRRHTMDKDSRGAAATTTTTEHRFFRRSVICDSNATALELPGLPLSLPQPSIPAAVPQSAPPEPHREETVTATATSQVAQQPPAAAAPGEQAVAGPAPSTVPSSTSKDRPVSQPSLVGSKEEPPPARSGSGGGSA
T4 sequence (Q9H4A3 1-491 M304A): as the sequence (Q9H4A3 1-491 F356A) above, with M304A, A356F counted along it

## C=CC1=C(C)/C(=C/c2[nH]c(Cc3[nH]c(/C=C4\NC(=O)C(C)=C4C=C)c(C)c3CCC(=O)O)c(CCC(=O)O)c2C)NC1=O [bilirubin, Bilirubin]
hWNK2
  Kd: 530 nM
WNK1 (1–190)
  Kd: 1830 nM
[1]
  binding to F356A mutant: reduced binding affinity
[2]
  binding to M304A mutant: reduced binding affinity
[3]
  binding to K351A mutant: reduced binding affinity
[4]
  binding to T301A mutant: unable to bind
hWNK4
  Kd: 280 nM
Primary astrocytes
  bilirubin-induced effect on [Cl−]i: not observed
[5]
  neural excitability: induces neural hyperexcitability
FABP1
  concentrations at which FABP1 binds bilirubin: 1 to 4 µM
